According to PMC7111470 (European Journal of Medicinal Chemistry, 2011):

Tests used:
[1] = target: T1, BCoV 9-SOAE (haemagglutinin-esterase on whole virus) (Bovine coronavirus Mebus, UniProt P15776); assay: pNPA hydrolysis, A400; type: biochemical; settings: read-out: BCoV / 3
[2] = target: T1, BCoV 9-SOAE (haemagglutinin-esterase on whole virus); assay: pNPA hydrolysis, A400; type: biochemical

T1 sequence (P15776 17-424): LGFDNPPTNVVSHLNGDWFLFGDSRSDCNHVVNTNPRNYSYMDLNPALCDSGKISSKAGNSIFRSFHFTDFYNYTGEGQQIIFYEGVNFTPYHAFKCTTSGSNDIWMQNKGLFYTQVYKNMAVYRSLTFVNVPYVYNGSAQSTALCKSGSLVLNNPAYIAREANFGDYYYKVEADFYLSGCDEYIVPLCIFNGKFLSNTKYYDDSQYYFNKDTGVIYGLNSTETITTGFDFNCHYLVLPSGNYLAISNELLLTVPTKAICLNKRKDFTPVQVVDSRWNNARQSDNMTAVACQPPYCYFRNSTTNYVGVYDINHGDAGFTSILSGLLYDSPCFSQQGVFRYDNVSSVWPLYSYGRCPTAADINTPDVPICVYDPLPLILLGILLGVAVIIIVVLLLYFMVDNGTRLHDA

Row | Compound | inhibition at 2000 µM [1] | pNPA hydrolysis, A400 [2]
1 | C=CCO[C@]1(C(=O)O)C[C@H](O)[C@@H](NC(C)=O)[C@H]([C@H](O)[C@H](O)COC)O1 [compound 3, Ammonium (allyl 5-acetamido-9-O-methyl-3,5-dideoxy-d-glycero-α-d-galacto-2-nonulopyranosidonate)] | < 0% | 
2 | CC(=O)Oc1ccc([N+](=O)[O-])cc1 [p-nitrophenyl acetate] |  | esterase activities of all viruses and recombinant proteins were determined with p-nitrophenyl acetate (pNPA)
